For assay [1], the system named is Hepatovirus A. Briefly: Inhibition of hepatitis A virus 3C proteinase at 10 uM by microplate assay.
In assay [2] the test system is Hepatovirus A. The experiment in a line: Inhibition of hepatitis A virus 3C proteinase at 1 uM by microplate assay.
The subject of assay [3] is Hepatovirus A. The experiment in a line: Inhibition of hepatitis A virus 3C proteinase at 0.25 uM by microplate assay.
Assay [4] in a line: Inhibition of hepatitis A virus 3C proteinase by microplate assay. On the set-up: species or system Hepatovirus A.
The test system of assay [5] is Hepatovirus A. The experiment in a line: Activity of hepatitis A virus 3C proteinase assessed as compound hydrolysis by HPLC.
In assay [6] the test system is Hepatovirus A. The experiment in a line: Ratio of Kcat to Km of hepatitis A virus 3C proteinase.

Molecules are shown by their SMILES.

What is called inhibition is the share of the control response that was lost under treatment. A high value points to a strong effect. With `CN(C)c1ccc(C(=O)Oc2cncc(Cl)c2)cc1`, the values for the inhibition in the assay with Hepatovirus A [1], in the assay with Hepatovirus A [2] and with Hepatovirus A [3] were greater than 90%, greater than 90% and 20%, respectively.
For `O=C(Nc1ccc(F)cn1)c1cccs1`, the inhibition in the assay on Hepatovirus A [1] was less than 10%.
In the case of `O=C(Oc1cncc(Cl)c1)c1ccccc1`, the values for the inhibition with Hepatovirus A [1], with Hepatovirus A [2] and with Hepatovirus A [3] were greater than 90%, greater than 90% and less than 10%, respectively.
In the case of `COc1cccc(C(=O)Oc2cncc(Cl)c2)c1`, the inhibition in the assay with Hepatovirus A [1] is greater than 90%; with Hepatovirus A [2], 50%.
In the case of `O=C(Oc1cncc(Cl)c1)c1ccc(-c2ccccc2)cc1`, the inhibition worked out at 39% with Hepatovirus A [1] and 23% with Hepatovirus A [2].
`Cc1onc(-c2ccccc2)c1C(=O)Oc1cncc(Cl)c1`: the inhibition with Hepatovirus A [1] and in the assay with Hepatovirus A [3] was less than 10% in each case.
As to `O=C(Oc1cncc(Cl)c1)c1cnc2cc(C(F)(F)F)ccc2c1O`, the inhibition with Hepatovirus A [1] was less than 10%.
On to `O=C(Oc1cncc(Cl)c1)c1ccc2c(c1)OCO2`, for which the figures for the inhibition with Hepatovirus A [1] and with Hepatovirus A [2] were greater than 90% and 11%, respectively.
For `O=C(Oc1cncc(Cl)c1)c1ccc(Cl)cc1O`, the inhibition in the assay on Hepatovirus A [1] was greater than 90%; in the assay on Hepatovirus A [2] it was 59%; in the assay with Hepatovirus A [3] it was 10%.
In the assay on Hepatovirus A [1], `O=C(Oc1cccnc1Cl)c1cccs1` returned an inhibition of 11%.
For the compound `O=C(Oc1cncc(Cl)c1)c1cc2ccccc2s1`, the figures for the inhibition with Hepatovirus A [1] and with Hepatovirus A [2] were greater than 90% and 47%, respectively.
On to `COc1ccc(C(=O)Oc2cncc(Cl)c2)cc1OC`, for which the inhibition in the assay with Hepatovirus A [1] was 59%.
As to `O=C(Oc1cccnc1)c1cccs1`, the results for the inhibition with Hepatovirus A [1] and in the assay on Hepatovirus A [2] were 83% and 21%, respectively.
In the assay on Hepatovirus A [1], `O=C(Oc1cccc(Cl)c1)c1ccco1` came in with an inhibition of 11%.
Still for that read-out and setting: the result for `O=C(Nc1ccncc1)c1cccs1` reads less than 10%.
As for `O=C(Oc1cncc(Cl)c1)c1ccc(F)cc1`, the inhibition in the assay on Hepatovirus A [1] is greater than 90%; with Hepatovirus A [2], 45%.
For `O=C(Oc1cncc(Cl)c1)c1ccc2ccccc2c1`, the inhibition in the assay on Hepatovirus A [1] came to 23%; in the assay with Hepatovirus A [2], 35%.
The matching figures for `Cc1cccc(C(=O)Oc2cncc(Cl)c2)c1`: 63% and 32%.
Compound `O=C(Oc1ccco1)c1cccnc1` showed an inhibition with Hepatovirus A [1] greater than 90%.
Same read-out and setting: in the case of `O=C(Oc1cccc(Cl)n1)c1cccs1` it was 16%.
Turning to `O=C(Oc1cncc(Cl)c1)c1cccc(Cl)c1`, the inhibition amounted to 29% with Hepatovirus A [1] and 50% in the assay with Hepatovirus A [2].
The matching figures for `O=C(Oc1cncc(Cl)c1)c1cc(F)c(Cl)nc1Cl`: 44% and 19%.
With `O=C(Oc1cncc(Cl)c1)c1cc2ccccc2o1`, the inhibition in the assay on Hepatovirus A [1] was greater than 90%; with Hepatovirus A [2] it was greater than 90%; with Hepatovirus A [3], less than 10%.
One may read the IC50 as the point on the concentration scale where inhibition reaches its midpoint. A lower IC50 goes with inhibition by little substance. As a reminder, the Km is the substrate concentration at which the rate is half of its maximum. Turning to `O=C(/C=C/c1ccco1)Oc1cncc(Cl)c1`, inhibition in assay [4] was half-maximal at 140 nM (IC50). The inhibition in the assay on Hepatovirus A [1] was 83%; in the assay with Hepatovirus A [2], greater than 90%; in the assay on Hepatovirus A [3], 43%. Further, the Km with Hepatovirus A [5] stood at 0.18 µM. The kcat in the assay on Hepatovirus A [5] was found to be 25 ×10⁻⁵ /s. The kcat/Km in the assay on Hepatovirus A [6] was determined as 1.4 ×10³ /M/s.
Turning to `O=C(Oc1cncc(Cl)c1)c1cn[nH]c1`, the inhibition came to 56% with Hepatovirus A [1] and 21% in the assay on Hepatovirus A [2].
In the assay on Hepatovirus A [1], `Cc1ccsc1C(=O)Oc1cncc(Cl)c1` yielded an inhibition of less than 10%.
For `NS(=O)(=O)c1ccc(C(=O)Oc2cncc(Cl)c2)cc1`, the inhibition with Hepatovirus A [1] was 64%; in the assay on Hepatovirus A [2], 57%; in the assay with Hepatovirus A [3], less than 10%.
As to `O=C(Oc1cncc(Cl)c1)c1ccc(-c2ccc(Cl)cc2[N+](=O)[O-])o1`, the inhibition in the assay on Hepatovirus A [1] stood at 40%.
As for `O=C(Oc1cncc(Cl)c1)c1ccc[nH]1`, the inhibition was 92% in the assay on Hepatovirus A [1], less than 10% in the assay on Hepatovirus A [2] and less than 10% with Hepatovirus A [3].
`Cc1ccc(OC(=O)c2cccs2)cn1` displayed an inhibition with Hepatovirus A [1] of 23%.
`O=C(Oc1cncc(Cl)c1)c1ccc2ncsc2c1`: the inhibition came out at 74% in the assay on Hepatovirus A [1], 54% in the assay with Hepatovirus A [2] and 27% in the assay on Hepatovirus A [3].
The matching figures for `COc1ccccc1C(=O)Oc1cncc(Cl)c1`: 85%, 57% and less than 10%.
`O=C(Nc1ccc(Cl)cn1)c1cccs1` had an inhibition in the assay with Hepatovirus A [1] of less than 10%.
`O=C(Nc1ccccn1)c1cccs1` gave an inhibition in the assay with Hepatovirus A [1] of less than 10%.
For the compound `O=C(Oc1cncc(Cl)c1)c1ccncc1`, the figures for the inhibition in the assay on Hepatovirus A [1] and in the assay with Hepatovirus A [2] were 37% and 34%, respectively.
With `Cc1ccccc1C(=O)Oc1cncc(Cl)c1`, in the assay with Hepatovirus A [1], the inhibition turned out to be 82%.
On the same count and under the same terms, in the case of `O=C(Oc1cncc(Cl)c1)c1cc2ccccc2oc1=O` it was 75%.
Take `O=C(Oc1cncc(Cl)c1)c1cscn1`: the results for the inhibition with Hepatovirus A [1], in the assay on Hepatovirus A [2] and with Hepatovirus A [3] were greater than 90%, 85% and 37%, respectively.
In assay [4], `O=C(Oc1cncc(Cl)c1)c1ccco1` displayed an IC50 of 338 nM. For the same compound, the results for the inhibition in the assay on Hepatovirus A [1], with Hepatovirus A [2] and with Hepatovirus A [3] were greater than 90%, greater than 90% and 49%, respectively. Also, in the assay on Hepatovirus A [5], the Michaelis-Menten constant (Km) stood at 0.24 µM. For the same compound, the kcat with Hepatovirus A [5] came to 110 ×10⁻⁵ /s. In addition, in the assay with Hepatovirus A [6], the kcat/Km came to 4.6 ×10³ /M/s.
For the compound `O=C(Oc1cncc(Cl)c1)c1cccc2ccccc12`, the inhibition is greater than 90% with Hepatovirus A [1] and 30% in the assay on Hepatovirus A [2].
Regarding `Cc1ccc(OC(=O)c2cccs2)nc1`, in the assay on Hepatovirus A [1], the inhibition stood at 12%.
Still for that read-out and setting: in the case of `CCN(CC)c1ccc(C(=O)Oc2cncc(Cl)c2)cc1` it was 64%; in that of `O=C(Nc1cccnc1Cl)c1cccs1`, less than 10%.
In the case of `O=C(Oc1cncc(Cl)c1)c1ccc(-c2ccc(Cl)cc2)o1`, the inhibition with Hepatovirus A [1] is greater than 90%; in the assay on Hepatovirus A [3], 36%.
In turn, `O=C(Oc1cncc(Br)c1)c1ccco1` came in with a half-maximal inhibitory concentration (IC50) in assay [4] of 53 nM. In the assay on Hepatovirus A [2], this compound had an inhibition greater than 90%. Also, in the assay on Hepatovirus A [3], the inhibition came out at 87%. In addition, in the assay with Hepatovirus A [5], the Km turned out to be 0.12 µM and the kcat came to 119 ×10⁻⁵ /s. The kcat/Km in the assay with Hepatovirus A [6] is 10 ×10³ /M/s.
With `O=C(/C=C/c1ccccc1)Oc1cncc(Cl)c1`, the inhibition is greater than 90% in the assay with Hepatovirus A [1] and 53% with Hepatovirus A [2].
Compound `O=C(Oc1cncc(Cl)c1)c1cnccn1` returned an inhibition with Hepatovirus A [1] of 22%.
`O=C(Oc1cncc(Cl)c1)c1cc([N+](=O)[O-])[nH]n1`: in assay [4], half-maximal inhibition (IC50) required 250 nM. The inhibition amounted to 54% with Hepatovirus A [1], 69% with Hepatovirus A [2] and 53% with Hepatovirus A [3].
In the assay with Hepatovirus A [1], `COc1ccc(C(=O)Oc2cncc(Cl)c2)cc1` registered an inhibition of 85%.
As for `O=C(Oc1cncc(Cl)c1)c1ccc(-c2cc(C(F)(F)F)ccc2Cl)o1`, the inhibition with Hepatovirus A [1] came out at 76%; with Hepatovirus A [2], 36%.
In the case of `O=C(Oc1cncc(Cl)c1)c1ccc2[nH]nnc2c1`, the inhibition in the assay with Hepatovirus A [1] was greater than 90%.
With `O=C(Oc1ccccn1)c1cccs1`, the inhibition in the assay on Hepatovirus A [1] came to 89%; with Hepatovirus A [2] it was 8%.
In the case of `O=C(Oc1cncc(Cl)c1)c1ccoc1`, the inhibition in the assay with Hepatovirus A [1] was greater than 90%.
Compound `O=C(Oc1cncc(Cl)c1)c1ccc(-c2ccccc2[N+](=O)[O-])o1` yielded an inhibition with Hepatovirus A [1] of 37%.
Regarding `Clc1cncc(OCc2ccco2)c1`, the inhibition in the assay on Hepatovirus A [1] was less than 10%.
As to `O=C(Oc1cncc(Cl)c1)c1ccccc1[N+](=O)[O-]`, the inhibition is greater than 90% with Hepatovirus A [1] and 24% in the assay on Hepatovirus A [2].
For the compound `O=C(Oc1cncc(Cl)c1)c1ccc(Br)o1`, in assay [4], the concentration for half-maximal inhibition (IC50) worked out at 1200 nM. The inhibition was greater than 90% in the assay with Hepatovirus A [1] and 54% in the assay with Hepatovirus A [3].
Turning to `O=C(Nc1cccnc1)c1cccs1`, in the assay on Hepatovirus A [1], the inhibition was less than 10%.
Same read-out and setting: the result for `O=C(OCc1cncc(Br)c1)c1ccco1` reads 67%.
With `O=C(Oc1cncc(Cl)c1)c1ccc2[nH]ccc2c1`, the inhibition in the assay on Hepatovirus A [1] was determined as 87%; with Hepatovirus A [2] it was 60%; with Hepatovirus A [3] it was 22%.
Turning to `Cc1ccc(C(=O)Oc2cncc(Cl)c2)cc1`, the inhibition in the assay with Hepatovirus A [1] was 77%; in the assay on Hepatovirus A [2], 70%.
The matching figures for `CNc1ccc(C(=O)Oc2cncc(Cl)c2)cc1`: 82% and less than 10%.
With `O=C(Cc1cccnc1)c1cccs1`, the inhibition in the assay with Hepatovirus A [1] came to 10%.
For `Cc1ncccc1OC(=O)c1cccs1`, the inhibition in the assay with Hepatovirus A [1] and with Hepatovirus A [2] was less than 10% each time.
On to `O=C(Oc1cncc(Cl)c1)c1ccc(-c2ccccc2C(F)(F)F)o1`, for which the inhibition in the assay with Hepatovirus A [1] was greater than 90%; in the assay with Hepatovirus A [3] it was less than 10%.
On the same counts, the results for `Cc1ccc(C(=O)Oc2cncc(Cl)c2)s1` are greater than 90% and 24%.
`O=C(Oc1cncc(Cl)c1)c1c[nH]c2ccccc12` displayed an inhibition in the assay with Hepatovirus A [1] of 13%.
Same read-out and setting: in the case of `Cc1ccc(OC(=O)c2cccs2)c([N+](=O)[O-])n1` it was 14%.
`O=C(Oc1cncc(Cl)c1)c1ccc2[nH]cnc2c1`: the inhibition in the assay with Hepatovirus A [1] is 82%; in the assay on Hepatovirus A [2], 75%; in the assay on Hepatovirus A [3], 32%.
Consider `Cc1cccc(OC(=O)c2cccs2)n1`, for which the results for the inhibition in the assay on Hepatovirus A [1] and in the assay on Hepatovirus A [2] were 91% and less than 10%, respectively.
Consider `O=C(Oc1ccc(Cl)nc1)c1cccs1`, for which the inhibition with Hepatovirus A [1] came out at 25%.
Turning to `O=C(Oc1cncc(Cl)c1)c1ccccc1Cl`, the figures for the inhibition with Hepatovirus A [1], in the assay with Hepatovirus A [2] and in the assay with Hepatovirus A [3] were greater than 90%, 67% and 23%, respectively.
As for `Nc1ccc(C(=O)Oc2cncc(Cl)c2)cc1`, the values for the inhibition in the assay with Hepatovirus A [1] and in the assay with Hepatovirus A [2] were greater than 90% and 26%, respectively.
Turning to `O=C(Oc1cncc(Cl)c1)c1c[nH]cn1`, the inhibition in the assay on Hepatovirus A [1] came out at 33%; with Hepatovirus A [2] it was 47%; with Hepatovirus A [3], 34%.
As to `O=C(Oc1ccncc1)c1cccs1`, the inhibition with Hepatovirus A [1] is less than 10%; with Hepatovirus A [2], 10%.
With `O=S(=O)(Nc1cccnc1)c1cccs1`, the inhibition in the assay with Hepatovirus A [1] was less than 10%.
For `O=C(Oc1cncc(Cl)c1)C1CCCCC1`, the inhibition in the assay with Hepatovirus A [1] is 81%; in the assay on Hepatovirus A [2], 32%.
The matching figures for `O=C(Oc1cncc(Cl)c1)c1cc2ccccc2[nH]1`: 80% and 58%.

For the origin of these results see ChEMBL document CHEMBL1150252, “Heteroaromatic ester inhibitors of hepatitis A virus 3C proteinase: Evaluation of mode of action” (Bioorg Med Chem, 2008).
